For one test, the target named is T1, D(II) FGFR1 (Homo sapiens, UniProt P11362).
T1 construct: domain II of the fibroblast growth factor receptor 1 (D(II)FGFR1); hexa-histidine (N); made in house; host or cells: E. coli (renatured from inclusion bodies)
T1 sequence (P11362 158-246 limits assumed): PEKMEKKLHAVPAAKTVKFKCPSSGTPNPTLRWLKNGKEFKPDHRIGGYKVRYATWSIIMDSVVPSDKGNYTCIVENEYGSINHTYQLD
Put plainly: functional probe library screen (microplate thermal shift assay) against D(II) FGFR1. The note with it: functional probe library Plate 1; for effect on thermal stability of D(II) FGFR1: 50 μM D(II) FGFR1. Format: binding. The text has this:
The compounds in functional probe library Plate 1 was also employed to generate an activity spectrum for D(II) FGFR1. D(II) FGFR1 was cloned and expressed in E. coli. Recombinant D(II) FGFR1 was renatured from inclusion bodies essentially as described (Wetmore, D. R. et al., Proc. Soc. Mtg., San Diego, Calif. (1994)), except that a hexa-histidine tag was included at the N-terminus to facilitate recovery by affinity chromatography on a Ni^2+ chelate column (Janknecht, R. et al., Natl. Acad Sci. USA 88:8972–8976 (1991)). D(II) FGFR1 was further purified on a heparin-sepharose column (Kan, M. et al., Science 259:1918–1921 (1993); Pantoliano, M. W. et al., Biochemistry 33:10229–10248 (1994)). Purity was >95%, as judged by SDS-PAGE. The D(II) FGFR1 protein was concentrated to 12 mg/mL (˜1 mM) and stored at 4° C.
Reactions were prepared in 96-well polycarbonate microtitre plate v-bottom wells. The final concentration of D(II) FGFR1 was 50 μM in […], pH 8 in each well of a 96-well polycarbonate microtitre plate.
The fluorescence emission was measured at 460 nm.

The subject of a further test is Bovine muscle myosin. Kind of test: microplate thermal shift assay of ATP binding, myosin. As to the method:
(§1) Bovine muscle myosin (Sigma), bovine heart 3′–5′ cAMP-dependent protein kinase (Sigma), and chicken muscle pyruvate kinase (Sigma) were each dissolved in Buffer A to generate stock solutions at a final concentration of 2 mg/mL. […] 10 μL of mineral oil was then added to each of the four wells to prevent evaporation. Each data point shown was collected by heating the plate at the temperatures shown for three minutes. For example, the plate was heated to a given temperature, and then allowed to cool to 25 ° C. for one minute, followed by UV illumination and collection of the data. Then the plate was heated to the next higher temperature, and so forth. UV illumination was performed using a long wavelength illumination at […]–420 nm, having a peak at 365 nm. Fluorescence was imaged using a CCD camera having a bandpass filter centered at 550 nm.

The target in test [1] is T2, chicken muscle pyruvate kinase (Gallus gallus, UniProt P00548).
T2 construct: chicken muscle pyruvate kinase (Sigma); purchased Sigma; host or cells: chicken muscle
T2 sequence (P00548 whole entry): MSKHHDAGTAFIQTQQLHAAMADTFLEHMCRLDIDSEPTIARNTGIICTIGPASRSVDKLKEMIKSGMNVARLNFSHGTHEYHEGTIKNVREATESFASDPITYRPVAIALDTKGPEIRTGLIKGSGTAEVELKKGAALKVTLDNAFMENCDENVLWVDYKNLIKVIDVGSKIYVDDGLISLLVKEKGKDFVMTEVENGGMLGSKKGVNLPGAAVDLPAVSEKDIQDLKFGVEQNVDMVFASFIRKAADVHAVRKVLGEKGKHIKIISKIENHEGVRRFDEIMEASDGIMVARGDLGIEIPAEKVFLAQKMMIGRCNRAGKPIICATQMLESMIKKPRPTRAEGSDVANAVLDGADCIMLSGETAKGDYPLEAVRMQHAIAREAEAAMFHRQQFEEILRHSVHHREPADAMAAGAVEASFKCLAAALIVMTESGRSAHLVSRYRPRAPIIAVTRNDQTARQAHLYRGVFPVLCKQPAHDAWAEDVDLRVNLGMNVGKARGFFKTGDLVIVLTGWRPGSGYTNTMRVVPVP
Put plainly: microplate thermal shift assay of ATP binding, pyruvate kinase. The following applies: 10 mM, standard deviation in parentheses. On the procedure:
as §1

Test [2] has as its target T3, bovine heart 3′–5′ cAMP-dependent protein kinase (Bos taurus, UniProt P00517).
T3 construct: bovine heart 3′–5′ cAMP-dependent protein kinase (Sigma); purchased Sigma; host or cells: bovine heart
Kind of test: microplate thermal shift assay of ATP binding, cAMP-dependent protein kinase.

Test [3] addresses T4, Bovine liver dihydrofolate reductase (Bos taurus, UniProt P00376).
T4 sequence (P00376 1-187): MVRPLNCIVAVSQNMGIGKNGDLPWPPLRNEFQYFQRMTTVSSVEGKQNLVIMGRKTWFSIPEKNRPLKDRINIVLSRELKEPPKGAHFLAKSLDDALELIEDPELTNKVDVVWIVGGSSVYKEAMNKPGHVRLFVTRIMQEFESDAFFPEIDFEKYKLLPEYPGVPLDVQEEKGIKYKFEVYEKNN
Put plainly: microplate thermal shift assay, bovine DHFR. Format: binding. The note with it: for ΔTm of ligand complexed with DHFR: DHFR (cow), single ligand 10 mM. Also noted: Bovine liver dihydrofolate reductase (DHFR, Sigma); purchased Sigma; host or cells: bovine liver.

Test [4] has as its target T5, chicken liver dihydrofolate reductase (Gallus gallus, UniProt P00378).
T5 construct: chicken liver dihydrofolate reductase (DHFR, Sigma); purchased Sigma; host or cells: chicken liver
T5 sequence (P00378 1-189): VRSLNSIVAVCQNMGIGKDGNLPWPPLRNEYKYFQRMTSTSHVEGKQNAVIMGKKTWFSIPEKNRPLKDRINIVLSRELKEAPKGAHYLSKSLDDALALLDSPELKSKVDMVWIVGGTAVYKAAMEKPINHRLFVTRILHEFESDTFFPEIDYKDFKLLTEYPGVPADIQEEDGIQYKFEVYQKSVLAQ
Kind of test: microplate thermal shift assay, chicken DHFR. The test is classed as binding. The note with it: for ΔTm of ligand complexed with DHFR: DHFR (chicken), single ligand 10 mM.

For test [5], the system named is pigeon liver arylamine acetyltransferase. Put plainly: microplate thermal shift assay, arylamine acetyltransferase. Format: binding. The following applies: Arylamine Acetyl transferase.
Test [6] deals with T6, porcine liver formimino glutamic acid transferase (Sus scrofa, UniProt P53603).
T6 construct: porcine liver formimino glutamic acid transferase (FGT, Sigma); purchased Sigma; host or cells: porcine liver
T6 sequence (P53603 1-541): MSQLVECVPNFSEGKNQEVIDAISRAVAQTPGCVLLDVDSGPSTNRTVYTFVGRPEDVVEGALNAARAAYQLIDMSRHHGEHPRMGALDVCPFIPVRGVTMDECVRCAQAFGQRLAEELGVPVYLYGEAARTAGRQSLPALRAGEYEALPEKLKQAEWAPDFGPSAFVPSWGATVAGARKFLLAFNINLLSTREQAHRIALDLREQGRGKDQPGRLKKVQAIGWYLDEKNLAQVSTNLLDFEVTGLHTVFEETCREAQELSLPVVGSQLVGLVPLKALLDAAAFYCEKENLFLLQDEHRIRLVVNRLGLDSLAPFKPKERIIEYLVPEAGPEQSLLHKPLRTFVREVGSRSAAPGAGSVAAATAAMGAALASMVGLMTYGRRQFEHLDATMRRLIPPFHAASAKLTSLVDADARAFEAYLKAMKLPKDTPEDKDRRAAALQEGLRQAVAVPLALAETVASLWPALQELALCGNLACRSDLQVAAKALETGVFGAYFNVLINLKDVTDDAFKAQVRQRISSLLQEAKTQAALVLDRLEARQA
Put plainly: microplate thermal shift assay, formimino glutamic acid transferase. The test is classed as binding. The note with it: Formimino L-Glutamic acid Transferase. On the procedure: Folic acid binding can be assayed using the microplate thermal shift assay. Bovine liver dihydrofolate reductase (DHFR, Sigma), chicken liver dihydrofolate reductase (DHFR, Sigma), pigeon liver arylamine acetyltransferase (ArAcT, Sigma), and porcine liver formimino glutamic acid transferase (FGT, Sigma) were each dissolved in Buffer A (50 mM HEPES, pH 7.5, 100 mM NaCl) to generate stock solutions at a final concentration of 2 mg/mL. Solutions of dihydrofolic acid (FAH2), methotrexate, nicotinamide adenine dinucleotide phosphate (NADP), were prepared by dissolving solid material into Buffer A immediately prior to use. Dapoxyl™ 12800 solution was prepared by diluting a stock of 20 mM Dapoxyl™, 12800 in dimethyl sulfoxide to the appropriate concentration in Buffer A.
For the thermal shift assay, four 10 μL aliquots of each assay mixture were dispensed into four wells located in different quadrants of an MJ Research 384-well thermocycler plate. 10 μL of mineral oil was then added to each of the four wells to prevent evaporation. Each data point shown was collected by heating the plate at the temperature shown for three minutes, followed by incubation at 25° C. for one minute, followed by UV illumination and collection of the data.

Test [7] deals with T4, Bovine liver dihydrofolate reductase. Put plainly: microplate thermal shift assay, bovine DHFR. The test is classed as binding. The note with it: FIG. 12. Also noted: Kd; Kd; Tm of the thermal unfolding curve; control 47.2° C; control 50.8° C; ΔTm.
For test [8], the target named is human α-thrombin (human) (UniProt P00734). Put plainly: microplate thermal shift assay, Kd at 298 K estimated, hirudin peptide binding thrombin in the presence of 200 µM heparin 5000.
For test [9] the target is unchanged. Kind of test: microplate thermal shift assay, Kd at Tm, hirudin peptide binding thrombin in the presence of 200 µM heparin 5000.
For test [10] the target is unchanged. Kind of test: microplate thermal shift assay, 1 µM thrombin + 50 µM hirudin peptide alone.
Test [11] shares this target. Put plainly: microplate thermal shift assay, Kd at 298 K estimated, hirudin peptide binding thrombin in the presence of 50 µM 3DP-4660.
Test [12] has the same target. Put plainly: microplate thermal shift assay, 50 µM hirudin peptide added to thrombin in the presence of 50 µM 3DP-4660 (shift against TH/3dp-4660).
Test [13] shares this target. Kind of test: microplate thermal shift assay, 50 µM hirudin peptide added to thrombin in the presence of 200 µM heparin 5000 (shift against TH/Heparin 5000).
For test [14] the target is unchanged. Kind of test: microplate thermal shift assay, Kd at Tm, hirudin peptide binding thrombin in the presence of 50 µM 3DP-4660.
Setting [15] is: Myosin, 10 mM, standard deviation in parentheses.

For the compound `OC[C@@H](O)[C@@H](O)[C@H](O)[C@@H](O)CO` [sorbitol], the “effect on thermal stability of D(II) FGFR1” value (shortened to “effect on thermal stability”) at D(II) FGFR1 is given as “stabilize”.
For the compound `O=P(O)(O)OP(=O)(O)OP(=O)(O)O` [tri-polyphosphate], on D(II) FGFR1 (largest shift), the “thermal shift of D(II) FGFR1” value is “about 11 °C”.
Usually Kd stands for the constant that tells how readily two partners part at equilibrium. Consider `Nc1ncnc2c1ncn2[C@@H]1O[C@H](COP(=O)(O)OP(=O)(O)OP(O)(O)=S)[C@@H](O)[C@H]1O` [ATP-γ-S, adenosinetriphosphate-γ-S], for which the ΔTm in the test on Bovine muscle myosin (setting [15]) is 0.0 (±0.2) ° C; in [1], 0.8 (±0.11) ° C; in [2] (3′–5′ cAMP Protein kinase, 10 mM, standard deviation in parentheses), 5.6 (±1.7) ° C; in [2] (FIG. 10), 5.6 °C. Further, the “Tm of the thermal unfolding curve” value in [2] ((+) ATP-γ-S, FIG. 10, control 46.2° C.) is 51.8 °C. Further, in test [2] (FIG. 10), the Kd was 200 µM.
`Nc1ncnc2c1ncn2[C@@H]1O[C@H](COP(=O)(O)OP(=O)(O)OP(=O)(O)O)[C@@H](O)[C@H]1O` [ATP, adenosine triphosphate]: in the test on Bovine muscle myosin ((+)ATP, FIG. 9, control 49.3° C.), the “Tm of the thermal unfolding curve” value came to 51.4 °C. Further, on Bovine muscle myosin (FIG. 9), the Kd amounted to 440 µM and the ΔTm is 2.1 °C. Besides, the ΔTm in the test with Bovine muscle myosin (setting [15]) is recorded as 2.2 (±0.4) ° C. The ΔTm at 10000 µM in test [1] was -0.44 °C.
On to “nicotinamide adenine dinucleotide phosphate [NADP]”, for which the “ΔTm of ligand complexed with DHFR” value is recorded as 6.3 degrees in test [3] and 7.5 degrees in test [4]. In addition, the ΔTm in test [3] (DHFR (first row, reference Tm 52.47), 5 mM) is listed as 3.2 (±0.13); in [4] (DHFR (second row, reference Tm 56.6), 5 mM), 3.8 (±0.4); in [5] (5 mM) it was 2.8 (±0.4); in test [6] (5 mM) it was 0.0 (±0.2).
Take `OC[C@H]1O[C@@](CO)(O[C@H]2O[C@H](CO)[C@@H](O)[C@H](O)[C@H]2O)[C@@H](O)[C@@H]1O` [D(+)-sucrose]: on D(II) FGFR1, the “effect on thermal stability” value is on record as “stabilize”.
With `NC(=O)C1=CN([C@@H]2O[C@H](COP(=O)(O)OP(=O)(O)OC[C@H]3O[C@@H](n4cnc5c(N)ncnc54)[C@H](OP(=O)(O)O)[C@@H]3O)[C@@H](O)[C@H]2O)C=CC1` [NADPH, nicotinamide adenine dinucleotide phosphate-reduced form], the “ΔTm of ligand complexed with DHFR” value stood at 9.7 degrees in [3] and 11.9 degrees in [4]. For the same compound, the “Tm of the thermal unfolding curve” value in test [7] ((+) NADPH 10 mM, control 50.8° C.) amounted to 53.8 °C. For the same compound, in test [7], the Kd stood at 700 nM. For the same compound, in test [7] (NADPH 10 mM), the ΔTm came out at 3 °C.
On to `CN(Cc1cnc2nc(N)nc(N)c2n1)c1ccc(C(=O)N[C@@H](CCC(=O)O)C(=O)O)cc1` [Methotrexate, methotrexate], for which the ΔTm in test [5] (100 μM) is given as 1.0 (±0.4). In test [6], the ΔTm at 100 µM stood at 0.9 °C.
On to `OC[C@@H](O)[C@H](O)[C@@H](O)CO` [xylitol], for which, on D(II) FGFR1, the “effect on thermal stability” value is recorded as “stabilize”.
As for “Hirugen (hirudin 53-64) (Sigma) (from UniProt P09945 60-71) (peptide)”, the Kd was 478 nM with human α-thrombin (human) [8], 4.25 µM with human α-thrombin (human) [9], 54 nM with human α-thrombin (human) [11] and 731 nM in the test with human α-thrombin (human) [14]. The results for the ΔTm in the test with human α-thrombin (human) [10], with human α-thrombin (human) [12] and in the test with human α-thrombin (human) [13] were 5.8 ° K, 4.6 ° K and 2.6 ° K, respectively.
In the case of `Nc1nc2c(c(=O)[nH]1)N=C(CNc1ccc(C(=O)N[C@@H](CCC(=O)O)C(=O)O)cc1)CN2` [FAH2, dihydrofolic acid], the ΔTm in test [5] (100 μM) is given as −1.8 (±0.5). Also, the ΔTm at 100 µM in test [6] turned out to be 3.62 °C.
As to `O=C[C@H](O)[C@@H](O)[C@H](O)[C@H](O)CO` [D(+)-glucose], the “effect on thermal stability” value on D(II) FGFR1 is “stabilize”.

The values are drawn from US7122321B2, “High throughput method for functionally classifying proteins identified using a genomics approach” (Johnson & Johnson Pharmaceutical Research & Development, …, priority 1997, dated 2006).
